The target of one data set is PKM2 (Homo sapiens, UniProt P14618). The experiment in a line: Surface plasmon resonance, PKM2. On the technique in general: In SPR one partner is held on a chip, and binding of the other changes the refractive index at the surface.
The subject of another data set is HEK293 cells. The experiment in a line: Live-cell uptake by confocal microscopy. The data set is classed as cell-based. Particulars: live HEK293, 1 µM. As for the experimental part: To investigate the cellular permeability of IV, we employed confocal microscopy to monitor the uptake of the tracer in live HEK293 cells over time. The tracer was added to live cells at a final concentration of 1 µM, and real‐time fluorescence intensity was recorded immediately after addition. A rapid increase in fluorescence was observed, reaching a stable plateau approximately 4 min after addition, indicating fast cellular uptake and […] (Figure 3a and Video S1).
Fluorescence intensity was then continuously monitored for 60 min. To assess potential fluorophore degradation, corrected total cell fluorescence (CTCF) was calculated at each time point (Figure S6). Fluorescence values from regions of interest (ROIs) were integrated and normalized cell area and background signals in the absence of tracer.
To attach HEK293 cells to the bottom of 24-well imaging plates (Ibidi 82427), a Cell-Tak adhesive mixture (Corning, 354240) was used. It was prepared with a mixture of sodium bicarbonate (75 g/L), sodium hydroxide (40 g/L) and Cell-Tak (2.03 g/L) at a volume ratio of 291:5:4. For each well, 500 μL of Cell-Tak mix was added and incubated at room temperature for 30 min. […] For analysing intracellular fluorescence and distribution of IV within HEK293 cells, Z-stack images (22 images) were acquired after 5, 15, 30 and 60 min of incubation across a physical depth of ~22 μm. […]

Data set [1] has as its target T1, PKL (Homo sapiens, UniProt P30613). The experiment in a line: Fluorescence indication titration of tracer IV. Set-up: co-crystallisation of full-length PKL (including the B-domain); 8xHis (TEV-cleavable) (N, cleaved yes); made in house; host or cells: E. coli T7 Express (NEB), pExp-NHis plasmid. In kind it is binding. The protocol:
The binding kinetics of IV were further validated with fluorescence titration experiments conducted with recombinant PKL. As previously reported, SBD‐tagged PKL ligands fluorescence upon binding to the allosteric pocket,^[ [43] ^] enabling K D determination by saturation binding. […] Association kinetics were then measured by adding tracer IV to PKL and monitoring fluorescence over time. Data were fit using an exponential association model (Equation S2),^[ [49] ^] and k on was derived from the reciprocal analysis of recorded k obs values. The k off was subsequently calculated (Equation S3).^[ [49] ^] The fluorescent binding experiments were consistent with SPR results, confirming a mid‐nanomolar K D of IV.
Titrations of tracer IV were performed in the presence and absence of 10 µM FBP. […] PKL was prepared as a 2x working solution at a constant concentration used throughout the titration. Equal volumes (10 µL) of 2x tracer and 2x PKL solutions were mixed (1:1) in 384-well microplates (Corning Black PS, 3820). For each experiment, three 12-point triplicate series were prepared containing either: (1) tracer IV and buffer (no PKL), (2) tracer IV and PKL (0.1 µM), (3) tracer IV and PKL (0.1 µM) and mitapivat (10 µM, competitor control). […] Titration data were analyzed in Origin(Pro) 2023^[8] and fitted to the Hill equation to determine EC₅₀ values.

Data set [2] addresses T1, PKL. The experiment in a line: Recombinant PKL activity assay (Kinase-Glo MAX). The data set is classed as biochemical. Set-up: co-crystallisation of full-length PKL (including the B-domain); 8xHis (TEV-cleavable) (N, cleaved yes); made in house; host or cells: E. coli T7 Express (NEB), pExp-NHis plasmid. As for the experimental part:
The two isozymes were incubated with increasing concentrations of compounds before the addition of substrates PEP and adenosine diphosphate (ADP), and the reactions were monitored using a Kinase‐Glo MAX assay.
Figure S2. […] The reactions were terminated by the addition of Kinase Glo-MAX reagent after 10 min, and the luminescence from each reaction was quantified using a plate reader. The activity values are expressed as a percentage of PK activity of the DMSO control. The potencies were calculated by best fit of the Hill equation to the luminescence data.^[2] (A) PKL titrations. (B) PKM2 titrations. Error bars represent the ±SE of replicates (n = 3).
The reaction mixture contained 0.2 mM ADP, 0.1 mM PEP, 5 nM PKL, 1% DMSO, and test compounds at concentrations ranging from 0 to 1 mM across 12 titration points. Prior to substrate addition, PKL and test compounds were pre-incubated for 15 minutes.
After the reaction, 5 µL of Kinase-Glo Max reagent was added to each well. […] For each data set, luminescence from the DMSO control was set as 100% activity, and luminescence from the protein blank (no PKL) as 0% activity. Percentage activity (E%) was calculated using the equation: […]
Titration data was fitted to the Hill equation in Origin to determine EC₅₀ values.
In general terms: Kinase-Glo reads ATP consumption through a luciferase reaction.

T1 sequence (P30613 1-543 isoform P30613-2): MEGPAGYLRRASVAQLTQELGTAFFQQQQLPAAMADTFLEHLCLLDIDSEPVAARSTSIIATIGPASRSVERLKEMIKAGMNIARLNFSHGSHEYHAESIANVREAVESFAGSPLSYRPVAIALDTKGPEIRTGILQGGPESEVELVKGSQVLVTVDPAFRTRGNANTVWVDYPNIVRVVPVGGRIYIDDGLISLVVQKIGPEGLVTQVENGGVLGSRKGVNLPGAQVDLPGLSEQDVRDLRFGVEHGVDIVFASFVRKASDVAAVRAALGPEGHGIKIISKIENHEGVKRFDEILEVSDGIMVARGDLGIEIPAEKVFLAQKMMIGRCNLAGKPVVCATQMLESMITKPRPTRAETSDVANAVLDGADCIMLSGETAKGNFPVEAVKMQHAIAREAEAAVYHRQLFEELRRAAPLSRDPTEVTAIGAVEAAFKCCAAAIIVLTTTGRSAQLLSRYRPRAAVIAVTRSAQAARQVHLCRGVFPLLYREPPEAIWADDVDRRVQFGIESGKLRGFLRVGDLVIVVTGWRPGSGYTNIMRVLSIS
Chain of PKM2 (P14618 whole entry): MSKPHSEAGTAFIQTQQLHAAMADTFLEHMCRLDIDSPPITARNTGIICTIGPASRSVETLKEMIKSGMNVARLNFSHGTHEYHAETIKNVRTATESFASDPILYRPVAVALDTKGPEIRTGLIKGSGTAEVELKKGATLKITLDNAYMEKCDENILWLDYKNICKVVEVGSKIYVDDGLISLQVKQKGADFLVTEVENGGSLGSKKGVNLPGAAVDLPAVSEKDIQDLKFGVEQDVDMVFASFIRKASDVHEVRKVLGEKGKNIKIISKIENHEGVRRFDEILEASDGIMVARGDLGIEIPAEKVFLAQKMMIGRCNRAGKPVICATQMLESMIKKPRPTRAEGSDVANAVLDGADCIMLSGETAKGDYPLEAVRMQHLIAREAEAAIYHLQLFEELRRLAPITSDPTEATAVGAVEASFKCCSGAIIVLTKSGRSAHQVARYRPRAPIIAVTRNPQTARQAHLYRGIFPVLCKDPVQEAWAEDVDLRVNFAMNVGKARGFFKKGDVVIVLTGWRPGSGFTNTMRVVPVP

The term EC50 denotes the concentration that produces a half-maximal response. For the compound `CN(C)c1ccc(S(=O)(=O)c2ccc3c(=O)n(Cc4cc[nH]n4)ncc3c2)c2nonc12` [Compound IV, 2-((1H-Pyrazol-3-yl)methyl)-6-((7-(dimethylamino)benzo[c][1,2,5]oxadiazol-4-yl)sulfonyl)phthalazin-1(2H)-one], the Kd on PKM2 worked out at 1370 ± 218 nM; on PKL [1] (recombinant PKL, Hill fit, read-out: K D fluorescence titration (PKL)), 42 ± 7 nM. Moreover, the koff at PKM2 (read-out: k off SPR (PKM2)) is 0.0133 s⁻¹; at PKL [1] (calculated from K D and k on (Equation S3), read-out: k off fluorescence titration (PKL) (converted)), 0.00865 s⁻¹. The kon at PKM2 (read-out: k on SPR (PKM2)) was 9830 M⁻¹ s⁻¹; at PKL [1] (from k obs values), 206000 M⁻¹ s⁻¹. Further, in the data set on HEK293 cells, the “time to stable fluorescence plateau after addition” value is “approximately 4 min”. Further, on PKL [1] (PKLwt, with and without 10 µM FBP), the “effect of FBP on binding affinity” value is on record as “no significant change in binding affinity”. The EC50 at PKL [2] (recombinant PKL 10 nM, 15 min pre-incubation, PEP 0.1 mM, ADP 0.2 mM) amounted to 13 nM. For the same compound, the “PKL E max” value at PKL [2] (recombinant PKL, above 100% activation, below 100% inhibition) is recorded as 169 % vehicle.

The record behind these values is PMC12518693, “Potent Fluorescent Probe for Target‐Engagement Studies of Allosteric Pyruvate Kinase Modulators” (Angewandte Chemie (International Ed. in English), 2025).
